Assay results published in patent US7026281B1, “Antagonistic analogs of GH-RH inhibiting IGF-I and -II” (The Administrators of the Tulane Educational Fund, priority 1998, dated 2006).
Square brackets hold non-standard residues; d marks the D form. Peptide text beside a SMILES is read from it. * marks the point of attachment. Acetyl(1-naphthyl) = O=C(Cc1cccc2ccccc12)*; Phe(4-Cl) = N[C@@H](Cc1ccc(Cl)cc1)C(=O)O; hArg = N=C(N)NCCCC[C@H](N)C(=O)O; Nle = CCCC[C@H](N)C(=O)O; Abu = CC[C@H](N)C(=O)O; PhAc = O=C(Cc1ccccc1)*

Key:
[1] = system: hGH-RH(1–29)NH2 induced GH release; experiment: Inhibition of GH release in superfused rat pituitary system; type: cell-based; details: antagonist 30 nM; for Inhibition of GH release (%) 30 min: 1 nM hGH-RH(1–29)NH2 30 min later; for Inhibition of GH release (%) 60 min: 1 nM hGH-RH(1–29)NH2 60 min later; for Inhibition of GH release (%) 90 min: 1 nM hGH-RH(1–29)NH2 90 min later; for Inhibition of GH release (%) 120 min: 1 nM hGH-RH(1–29)NH2 120 min later; for Inhibition of GH release (%) 0 min: 1 nM hGH-RH(1–29)NH2 at 0 min
Description: Superfused Rat Pituitary System.
The analogs were tested in vitro in a test described earlier (S. Vigh and A. V. Schally, Peptides 5:241–347, 1984) with modification (Z. Rekasi and A. V. Schally, P.N.A.S. 90:2146–2149, 1993).
Briefly, the cells are preincubated with peptides for 9 minutes (3 mL) at various concentrations. Immediately after the incubation, 1 nM hGH-RH(1–29)NH2 is administered for 3 minutes (1 mL) [0 minute response]. To check the duration of the antagonistic effect of the analogue, 1 nM hGH-RH(1–29)NH2 is applied 30, 60, 90, and 120 minutes later for 3 minutes [30, 60, 90, 120 min responses]. Net integral values of the GH responses are evaluated. GH responses are compared to and expressed as percent of the original GH response induced by 1 nM GH-RH(1–29)NH2. The effect of the new antagonists are compared to that of [Ac-Tyr^1,D-Arg^2]hGH-RH(1–29)NH2, the “Standard antagonist”.
Growth Hormone Radio-immunoassay.
Rat GH levels in aliquots of undiluted and diluted superfusion samples were measured by double-antibody radioimmunoassay using materials supplied by the National Hormone and Pituitary Program, Baltimore, Md. The results of RIA were analyzed with a computer program developed in our institute (V. Csernus and A. V. Schally, in Neuroendocrine Research Methods, Harwood Academic (Greenstein, B. D. ed., London, pp. 71–109, 1991), hereby incorporated by reference. Inter-assay variation was less than 15% and intra-assay variation was less than 10%.

[2] = molecular target: T1, rat pituitary GH-RH receptors (Rattus norvegicus, UniProt Q02644); experiment: GH-RH radioreceptor binding assay, rat anterior pituitary membrane homogenates; details: for Ki: competition with [His1,125I-Tyr10,Nle27]hGH-RH(1–32)NH2; for R.A. (relative affinity compared to Standard antagonist): ratio of Ki values
T1 construct: from tissue; host or cells: anterior pituitary of male Sprague-Dawley rats, crude membrane homogenates
T1 sequence (Q02644 23-464): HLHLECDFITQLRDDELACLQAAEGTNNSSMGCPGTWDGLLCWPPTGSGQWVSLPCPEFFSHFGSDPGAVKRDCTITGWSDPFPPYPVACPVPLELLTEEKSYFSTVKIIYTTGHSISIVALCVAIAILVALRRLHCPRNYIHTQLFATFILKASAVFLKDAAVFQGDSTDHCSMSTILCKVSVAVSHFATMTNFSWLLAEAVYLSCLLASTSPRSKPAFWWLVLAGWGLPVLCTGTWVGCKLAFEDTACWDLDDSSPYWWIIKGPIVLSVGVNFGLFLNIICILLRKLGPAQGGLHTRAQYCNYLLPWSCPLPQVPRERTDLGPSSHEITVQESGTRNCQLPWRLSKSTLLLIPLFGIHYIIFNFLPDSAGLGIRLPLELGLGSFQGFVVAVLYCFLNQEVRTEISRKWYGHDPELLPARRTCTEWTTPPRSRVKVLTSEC
Description: GH-RH Binding Assay. A sensitive radioreceptor binding assay was developed to determine the binding characteristics of the antagonists of GH-RH (G. Halmos, A. V. Schally et al., Receptor 3, 87–97, 1993), hereby incorporated by reference. The assay is based on binding of labelled [His^1,Nle^27]hGH-RH(1–32)NH2 to rat anterior pituitary membrane homogenates. Iodinated derivatives of [His^1,Nle^27]hGH-RH(1–32)NH2 are prepared by the chloramine-T method (F. C. Greenwood et al., Biochemistry 89:114–123, 1963), hereby incorporated by reference. Pituitaries from male Sprague-Dawley rats (250–300 g) are used to prepare crude membranes. For saturation binding analyses, membrane homogenates are incubated with at least 6 concentrations of [His^1,^125I-Tyr^10,Nle^27]hGH-RH(1–32) NH2, ranging from 0.005 to 0.35 nM in the presence or absence of excess unlabelled peptide (1 μM).
The pellet is counted for radioactivity in a γ-counter. The affinities of the antagonist peptides tested to rat pituitary GH-RH receptors are determined in competitive binding experiments. The final binding affinities are estimated by Ki (dissociation constant of the inhibitor-receptor complex) and are determined by the Ligand PC and McPherson computer programs of Munson and Rodbard (P. J. Munson and D. Rodbard, Anal. Biochem. 107. 220–239, 1980). Relative affinities compared to [Ac-Tyr^1,D-Arg^2]hGH-RH(1–29)NH2, the Standard antagonist, are calculated as the […].

[3] = system: GH release stimulated by hGH-RH(1–29)NH2; experiment: In vivo inhibition of serum GH response in rats; parameters: species or system rat
Description: GH-RH antagonistic effect of the analogs was tested on young male Sprague-Dawley rats (200–250 g). In each experiment, 5 groups of 7 animals each were used. The compounds (80 μg/kg) and GH-RH(1–29)NH2 (3 μg/kg) were dissolved in 5.5% mannitol and given intravenously to the jugular vein of the rats under Nembutal anesthesia. The time elapsed between the administrations of the antagonist and GH-RH varied between groups, according to the following schedule. The first group of animals received GH-RH injection 5 min after the administration of the antagonist; for the second, third and fourth group of animals, the time interval elapsed between the injection of the antagonist and that of GH-RH was 15, 30, and 60 min, respectively. The control group was first injected with the solvent alone instead of the antagonist, followed by a GH-RH injection 5 min later.
0.4 mL blood samples were taken for GH RIA before the administration of the antagonist (“blood0”), and 5 min after the injection of GH-RH (“blood1”). The GH response in each group was calculated as rGH=(GHblood1/GHblood0), mean±S.E.M. of the individual differences. Relative inhibition of GH response (%) in each group treated was calculated as […].

`CCCC[C@H](NC(=O)[C@@H](NC(=O)[C@H](CC(=O)O)NC(=O)[C@H](CCC(N)=O)NC(=O)[C@H](CC(C)C)NC(=O)[C@H](CC(C)C)NC(=O)[C@H](CCCCN)NC(=O)[C@H](CCCNC(=N)N)NC(=O)[C@H](C)NC(=O)[C@H](CO)NC(=O)[C@H](CC(C)C)NC(=O)[C@H](CCC(N)=O)NC(=O)[C@H](CC)NC(=O)[C@H](CC(C)C)NC(=O)[C@@H](NC(=O)[C@H](CCCCN)NC(=O)[C@H](CCCNC(=N)N)NC(=O)[C@H](Cc1ccc(O)cc1)NC(=O)[C@H](CCCNC(=N)N)NC(=O)[C@H](CC(N)=O)NC(=O)[C@@H](NC(=O)[C@H](Cc1ccc(Cl)cc1)NC(=O)[C@@H](NC(=O)[C@H](C)NC(=O)[C@H](CC(=O)O)NC(=O)[C@@H](CCCNC(=N)N)NC(=O)[C@H](Cc1ccc(O)cc1)NC(=O)Cc1cccc2ccccc12)[C@@H](C)CC)[C@@H](C)O)C(C)C)[C@@H](C)CC)C(=O)N[C@H](CCCNC(=N)N)C(=O)N[C@@H](CCCCNC(=N)N)C(N)=O` [Peptide 5, [Nac^0, D-Arg^2, Phe(pCl)^6, Arg^9, Abu^15, Nle^27, D-Arg^28, Har^29]hGH-RH(1–29)NH2] ({Acetyl(1-naphthyl)}-Y[dR]DAI[Phe(4-Cl)]TNRYRKVL[Abu]QLSARKLLQDI[Nle][dR][hArg]-NH2) was tested, and the “Inhibition of GH release (%) 30 min” value [1] was 77%, the “Inhibition of GH release (%) 60 min” value [1] was 59% and the “Inhibition of GH release (%) 90 min” value [1] was 58%. For the same molecule, the “Inhibition of GH release (%) 120 min” value [1] was 50%, the “Inhibition of GH release (%) 0 min” value [1] was 79% and the Ki [2] was 36 pM. The “R.A. (relative affinity compared to Standard antagonist)” value [2] was 82.
For `CCCC[C@H](NC(=O)[C@@H](NC(=O)[C@H](CC(=O)O)NC(=O)[C@H](CCC(N)=O)NC(=O)[C@H](CC(C)C)NC(=O)[C@H](CC(C)C)NC(=O)[C@H](CCCCN)NC(=O)[C@H](CCCNC(=N)N)NC(=O)[C@H](C)NC(=O)[C@H](CO)NC(=O)[C@H](CC(C)C)NC(=O)[C@H](CCCNC(=N)N)NC(=O)[C@H](CC)NC(=O)[C@H](CC(C)C)NC(=O)[C@@H](NC(=O)[C@H](CCCCN)NC(=O)[C@H](CCCNC(=N)N)NC(=O)[C@H](Cc1ccc(O)cc1)NC(=O)[C@H](CO)NC(=O)[C@H](CC(N)=O)NC(=O)[C@@H](NC(=O)[C@H](Cc1ccc(Cl)cc1)NC(=O)[C@@H](NC(=O)[C@H](C)NC(=O)[C@H](CC(=O)O)NC(=O)[C@@H](CCCNC(=N)N)NC(=O)[C@H](Cc1ccc(O)cc1)NC(=O)Cc1ccccc1)[C@@H](C)CC)[C@@H](C)O)C(C)C)[C@@H](C)CC)C(=O)N[C@@H](CO)C(=O)N[C@H](CCCNC(=N)N)C(N)=O` [Peptide 10, [PhAc^0, D-Arg^2, Phe(pCl)^6, Abu^15, Arg^16, Nle^27, D-Arg^29]hGH-RH(1–29)NH2] (PhAc-Y[dR]DAI[Phe(4-Cl)]TNSYRKVL[Abu]RLSARKLLQDI[Nle]S[dR]-NH2), the “Inhibition of GH release (%) 30 min” value [1] was 69%, the “Inhibition of GH release (%) 60 min” value [1] was 46% and the “Inhibition of GH release (%) 90 min” value [1] was 24%. For the same molecule, the “Inhibition of GH release (%) 120 min” value [1] was 22%, the “Inhibition of GH release (%) 0 min” value [1] was 75% and the Ki [2] was 107 pM. The “R.A. (relative affinity compared to Standard antagonist)” value [2] was 27.
With “[Nac^0, His^1, D-Arg^2, Phe(pCl)^6, Arg^9, Abu^15, Nle^27, D-Arg^28, Har^29]hGH-RH(1–29)NH2 [Peptide 8]” the “Inhibition of GH release (%) 30 min” value [1] was 100%, the “Inhibition of GH release (%) 60 min” value [1] was 98% and the “Inhibition of GH release (%) 90 min” value [1] was 97%. For the same molecule, the “Inhibition of GH release (%) 120 min” value [1] was 90%, the “Inhibition of GH release (%) 0 min” value [1] was 100% and the “Inhibition of the GH release stimulated by hGH-RH(1–29)NH2 (in words)” value ([3]; 80 μg/kg i.v., rats) was “strong and long-lasting inhibition”. The “Relative inhibition % of GH response” value ([3]; antagonist 80 μg/kg i.v. 5 min before GH-RH) was 74%, the “Relative inhibition % of GH response” value ([3]; antagonist 80 μg/kg i.v. 15 min before GH-RH) was 46% and the “GH response mean ± S.E.M.” value ([3]; antagonist 80 μg/kg i.v. 15 min before GH-RH 3 μg/kg) was 3.6 ± 0.4. The “Relative inhibition % of GH response” value ([3]; antagonist 80 μg/kg i.v. 30 min before GH-RH) was 8%, the “GH response mean ± S.E.M.” value ([3]; antagonist 80 μg/kg i.v. 30 min before GH-RH 3 μg/kg) was 5.5 ± 0.6 and the “Relative inhibition % of GH response” value ([3]; antagonist 80 μg/kg i.v. 60 min before GH-RH) was 1%. For the same molecule, the “GH response mean ± S.E.M.” value ([3]; antagonist 80 μg/kg i.v. 60 min before GH-RH 3 μg/kg) was 5.8 ± 0.7 and the “GH response mean ± S.E.M.” value ([3]; rGH=GHblood1/GHblood0, antagonist 80 μg/kg i.v. 5 min before GH-RH 3 μg/kg) was 2.3 ± 0.3.
In the case of “[PhAc^0, D-Arg^2, Phe(pCl)^6, Arg^9, Tyr(Me)^10, Abu^15, Nle^27, D-Arg^28, Har^29]hGH-RH(1–29)NH2 [Peptide 6]”, the “Inhibition of GH release (%) 30 min” value [1] is reported as 93%, the “Inhibition of GH release (%) 60 min” value [1] is reported as 97% and the “Inhibition of GH release (%) 90 min” value [1] is reported as 95%. For the same molecule, the “Inhibition of GH release (%) 120 min” value [1] was 90% and the “Inhibition of GH release (%) 0 min” value [1] was 93%.
With “[PhAc^0, D-Arg^2, Phe(pCl)^6, Tyr(Me)^10, Abu^15, D-Arg^27, Arg^28, D-Arg^29]hGH-RH(1–29)NH2 [Peptide 19]” the “Inhibition of GH release (%) 30 min” value [1] was 47%, the “Inhibition of GH release (%) 60 min” value [1] was 59% and the “Inhibition of GH release (%) 90 min” value [1] was 23%. For the same molecule, the “Inhibition of GH release (%) 120 min” value [1] was 39% and the “Inhibition of GH release (%) 0 min” value [1] was 58%.
For “[PhAc^0, His^1, D-Arg^2, Phe(pCl)^6, Arg^9, Abu^15, Nle^27, D-Arg^28, Har^29]hGH-RH(1–29)NH2 [Peptide 7]”, the “Inhibition of GH release (%) 30 min” value [1] was 92%, the “Inhibition of GH release (%) 60 min” value [1] was 82% and the “Inhibition of GH release (%) 90 min” value [1] was 77%. The “Inhibition of GH release (%) 120 min” value [1] was 65% and the “Inhibition of GH release (%) 0 min” value [1] was 97%.
